# Measurements as given in patent US12280072B2, “Oligosaccharide compound for inhibiting intrinsic coagulation factor X-enzyme complex, and preparation method therefor and uses thereof” (Jiuzhitang Co., Ltd., priority 2017, dated 2025).
# Tests used:
# Type in all cases: biochemical
# FXa (Homo sapiens) = target: T1, FXa (Homo sapiens); assay: AT-dependent Xa inhibitory activity assay; details: in presence of AT; for IC50: read-out: Drug concentration required to inhibit 50% of coagulation factor activity (IC50, ng/mL) Xa (AT)
# T1 construct: 8 μg/mL FXa solution; purchased
# T1 sequence (P01008 33-464): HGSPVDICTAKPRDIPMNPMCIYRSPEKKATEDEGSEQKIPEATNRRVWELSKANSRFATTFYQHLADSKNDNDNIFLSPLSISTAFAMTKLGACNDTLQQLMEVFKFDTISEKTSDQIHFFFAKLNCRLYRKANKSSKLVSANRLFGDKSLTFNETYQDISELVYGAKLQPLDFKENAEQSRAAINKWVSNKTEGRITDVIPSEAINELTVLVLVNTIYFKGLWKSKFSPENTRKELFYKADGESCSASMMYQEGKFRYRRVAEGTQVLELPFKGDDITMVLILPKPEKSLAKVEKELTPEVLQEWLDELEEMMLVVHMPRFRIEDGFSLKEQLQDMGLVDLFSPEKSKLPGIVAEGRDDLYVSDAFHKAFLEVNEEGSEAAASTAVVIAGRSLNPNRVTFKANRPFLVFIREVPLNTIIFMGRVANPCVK
# Protocol: AT-dependent Xa inhibitory activity assay: Heparin […] kit was used for detection. To a 96-well plate, 30 μL of sample, control solution or Tris-HCl buffer (negative control) was added, then 30 μL of 1 IU/mL AT solution was added, mixed well and incubated at 37° C. for 1 min; and than 30 μL of 8 μg/mL FXa solution was added, mixed well and incubated at 37° C. for 1 min, then 30 μL of pre-warmed 1.25 mM Xa chromogenic substrate SXa-11 was added. OD405 was detected by a microplate reader.
# (§1) Data processing: The average value of OD405 detected by the duplicated well was used as the detection value of the test sample and the reference of each concentration, and the slope of the linear fit between the detected value to the time value (the change rate of the absorbance value OD405/min) indicated enzymatic activity of coagulation factor. Taking the clotting factor activity of the negative control well as 100%, coagulation factor activity (percentage) in the presence of the test sample was calculated. The coagulation factor activity in the presence of the test sample was plotted against the concentration of the test sample, and fitted according to the following formula, to calculate the IC50 value: B=(IC50)^n/{(IC50)^n+[I]^n}
# (§2) in the formula, B is the coagulation factor activity (percentage) in the presence of the test sample, [I] is the concentration of the test sample, IC50 is the half inhibitory concentration (concentration of the test sample required to inhibit 50% of the activity), and n is the Hill coefficient. • (4) Effect on surface activation and platelet activity: […]
# FIIa (Homo sapiens) = target: T2, FIIa (Homo sapiens); assay: AT-dependent IIa inhibitory activity assay; details: in presence of AT; for IC50: read-out: Drug concentration required to inhibit 50% of coagulation factor activity (IC50, ng/mL) Ha (AT)
# T2 construct: antithrombin (i.e., active coagulation factor IIa); purchased
# T2 sequence (P01008 33-464): as above
# Protocol: AT-dependent IIa inhibitory activity assay: Heparin Anti-FIIa kit was used for detection. To a 96-well plate, 30 μL of sample, control solution or Tris-HCl buffer (negative control) was added, and then 30 μL of 1 IU/mL AT solution was added, mixed well by shaking the plate and incubated at 37° C. for 2 min; 30 μL of 24 IU/mL FIIa solution was added, mixed well by shaking the plate and incubated for 2 min at 37° C., and then 30 μL of pre-warmed 1.25 mM FIIa specific chromogenic substrate CS-01 (38) was added, mixed well by shaking the plate. The OD405 was detected by a microplate reader and the IC50 value of FIIa inhibition of each sample was calculated.
# as §1, §2
# intrinsic factor Xase = target: T3, intrinsic factor Xase (Homo sapiens, UniProt P00740); assay: Xase inhibitory activity assay; details: for IC50: read-out: Drug concentration required to inhibit 50% of coagulation factor activity (IC50, ng/mL) Xase (converted)
# T3 construct: 60 nM FIXa; purchased
# T3 sequence (P00740 47-191 limits assumed): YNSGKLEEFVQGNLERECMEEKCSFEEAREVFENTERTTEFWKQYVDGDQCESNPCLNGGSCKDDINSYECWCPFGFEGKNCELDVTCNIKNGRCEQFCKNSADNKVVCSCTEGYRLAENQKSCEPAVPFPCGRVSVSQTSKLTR
# T3 sequence (P00740 227-461 limits assumed): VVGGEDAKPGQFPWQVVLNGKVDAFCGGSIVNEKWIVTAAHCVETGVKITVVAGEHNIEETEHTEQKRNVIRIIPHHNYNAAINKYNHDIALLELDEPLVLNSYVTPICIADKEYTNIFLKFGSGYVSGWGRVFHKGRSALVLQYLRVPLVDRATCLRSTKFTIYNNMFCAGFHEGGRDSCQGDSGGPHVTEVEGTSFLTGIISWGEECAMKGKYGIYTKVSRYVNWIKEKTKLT
# Protocol: Xase inhibitory activity assay: Detection was performed according to kit instructions and literature methods by combining the Factor VIII and […]. Specifically, to each well of a 96-well plate, 30 μL of test solution, control solution, or Tris-HCl buffer (negative control) was added, and 30 μl of FVIII (2 IU/ml), 30 μl of R2 (60 nM FIXa, containing FIIa, PC/PS, Ca^2+) were sequentially added, mixed by shaking the plate, incubated at 37° C. for 2 min; and then 30 μL of R1 (50 nM FX, containing direct thrombin inhibitor) was added, mixed by shaking the plate, incubated at 37° C. for 1 min; and then 30 μL of R3 (FXa chromogenic substrate SXa-11, about 8.4 mM) was added. The absorbance at 405 nm (OD405) was detected with a microplate reader, continuously measuring for 7.5 min at a interval of 30 s. The Xase activity and IC50 value of Xase inhibition of the test sample were calculated based on the OD405 change value.
# as §1, §2
# human-controlled plasma [1] = assay: Anticoagulant activity assay: PT clotting time
# Protocol: (§3) 8.2 Methods • (1) Preparation of sample solution: Oligosaccharide compounds A1˜A8, B1˜B11 and oligosaccharide mixtures C1, D1, D2 were all dissolved in Tris-HCl buffer and diluted to the desired series of solubility. • (2) Anticoagulant activity assay: 90 μL of human-controlled plasma was added to the sample or 10 μL of the control solution, and then the clotting time (APTT and PT) was detected by the MC-4000 coagulometer according to the method described in the APTT and PT kit instructions. • (3) Coagulation factor inhibitory activity analysis: […]
# human-controlled plasma [2] = assay: Anticoagulant activity assay: APTT clotting time
# Protocol: as §3
# plasma = assay: TT (thrombin time) clotting time
IC50 (FXa (Homo sapiens)) [nM],IC50 (FIIa (Homo sapiens)) [nM],IC50 (intrinsic factor Xase) [nM],Compound,Drug concentration required for multiplication of coagulation time (μg/mL) PT (human-controlled plasma [1]),Drug concentration required for multiplication of coagulation time (μg/mL) APTT (human-controlled plasma [2]) [µg/mL],Drug concentration required for multiplication of coagulation time (μg/mL) TT (plasma),"Drug concentration required to inhibit 50% of coagulation factor activity (IC50, ng/mL) Xa (AT) (FXa (Homo sapiens))","Drug concentration required to inhibit 50% of coagulation factor activity (IC50, ng/mL) Ha (AT) (FIIa (Homo sapiens))","Drug concentration required to inhibit 50% of coagulation factor activity (IC50, ng/mL) Xase (intrinsic factor Xase)"
> 1880,> 1880,22.2,"CC1OC(OC2C=C(C(=O)O)OC(OC3C(NS(=O)(=O)O)C(OC4C(C(=O)O)OC(OC5C(NS(=O)(=O)O)C(OC6C(C(=O)O)OC(OC(C(CO)NS(=O)(=O)O)C(OS(=O)(=O)O)C(O)COS(=O)(=O)O)C(O)C6OC6OC(C)C(OS(=O)(=O)O)C(O)C6OS(=O)(=O)O)OC(COS(=O)(=O)O)C5OS(=O)(=O)O)C(O)C4OC4OC(C)C(OS(=O)(=O)O)C(O)C4OS(=O)(=O)O)OC(COS(=O)(=O)O)C3OS(=O)(=O)O)C2O)C(OS(=O)(=O)O)C(O)C1OS(=O)(=O)O [Compound A7, L-Fuc2S4S-(α1,3)-L-ΔUA-(α1,3)-{D-GalNS4S6S-(β1,4)-[L-Fuc2S4S-(α1,3)-]-D-GlcA-(β1,3)}2-D-Gal-NS4S6S-ol]",# (>128 μg/mL),6.9,# (>128 μg/mL),–,–,–
> 1930,> 1930,27.2,"COCC(NC(C)=O)C(OC1OC(C(=O)OC)C(OC2OC(COS(=O)(=O)O)C(OS(=O)(=O)O)C(OC3OC(C(=O)OC)C(OC4OC(COS(=O)(=O)O)C(OS(=O)(=O)O)C(OC5OC(C(=O)OC)=CC(OC6OC(C)C(OS(=O)(=O)O)C(O)C6OS(=O)(=O)O)C5O)C4NC(C)=O)C(OC4OC(C)C(OS(=O)(=O)O)C(O)C4OS(=O)(=O)O)C3O)C2NC(C)=O)C(OC2OC(C)C(OS(=O)(=O)O)C(O)C2OS(=O)(=O)O)C1O)C(OS(=O)(=O)O)C(O)COS(=O)(=O)O [Compound A8, L-Fuc2S4S-(α1,3)-[6-Methyl-ΔUA-(α1,3)]-{D-GaNAc4S6S-(β1,4)-[L-Fuc2S4S-(α1,3)-]-D-6-Methyl-GlcA-(β1,3)}2-D-1-Methyl-Gal-NAc4S6S-ol]",# (>128 μg/mL),8.2,# (>128 μg/mL),–,–,–
> 1580,> 1580,9.56,"CCOC(=O)c1ccc(NCC(O)C(OC2OC(C)C(OS(=O)(=O)O)C(O)C2OS(=O)(=O)O)C(OC2OC(COS(=O)(=O)O)C(OS(=O)(=O)O)C(OC3OC(C(=O)O)C(OC4OC(COS(=O)(=O)O)C(OS(=O)(=O)O)C(OC5OC(C(=O)O)C(OC6OC(COS(=O)(=O)O)C(OS(=O)(=O)O)C(OC7OC(C(=O)O)=CC(OC8OC(C)C(OS(=O)(=O)O)C(O)C8OS(=O)(=O)O)C7O)C6NC(C)=O)C(OC6OC(C)C(OS(=O)(=O)O)C(O)C6OS(=O)(=O)O)C5O)C4NC(C)=O)C(OC4OC(C)C(OS(=O)(=O)O)C(O)C4OS(=O)(=O)O)C3O)C2NC(C)=O)C(O)C(=O)O)cc1 [Compound B11, L-Fuc2S4S-(α1,3)-L-ΔUA-(α1,3)-{D-GalNAc4S6S-(β1,4)-[L-Fuc2S4S-(α1,3)]-D-GlcA-(β1,3)}2-D-GalNAc4S6S-(β1,4)-[L-Fuc2S4S-(α1,3)]-D-1-deoxy-1-amino-GlcA-ol-N-4-benzoic ethyl ester]",# (>128 μg/mL),6.3,# (>128 μg/mL),–,–,–
> 1650,> 1650,10.3,"CC(=O)NC1C(OC2C(C(=O)O)OC(OC3C(NC(C)=O)C(OC4C(C(=O)O)OC(OC5C(NC(C)=O)C(OC(C(O)C(=O)O)C(OC6OC(C)C(OS(=O)(=O)O)C(OS(=O)(=O)O)C6O)C(O)CO)OC(COS(=O)(=O)O)C5OS(=O)(=O)O)C(O)C4OC4OC(C)C(OS(=O)(=O)O)C(OS(=O)(=O)O)C4O)OC(COS(=O)(=O)O)C3OS(=O)(=O)O)C(O)C2OC2OC(C)C(OS(=O)(=O)O)C(OS(=O)(=O)O)C2O)OC(COS(=O)(=O)O)C(OS(=O)(=O)O)C1OC1OC(C(=O)O)=CC(OC2OC(C)C(OS(=O)(=O)O)C(OS(=O)(=O)O)C2O)C1O [Compound B3, L-Fuc3S4S-(α1,3)-L-ΔUA-(α1,3)-{D-GalNAc4S6S-(β1,4)-[L-Fuc3S4S-(α1,3)]-D-GlcA-(β1,3)}˜-D-GalNAc4S6S-(β1,4)-[L-Fuc3S4S-(α1,3)]-D-GlcA-ol]",# (>128 μg/mL),6.1,# (>128 μg/mL),–,–,–
> 2300,> 2300,26.8,"CC(=O)NC1C(OC2C(C(=O)O)OC(OC3C(NC(C)=O)C(OC4C(C(=O)O)OC(O)C(O)C4OC4OC(C)C(OS(=O)(=O)O)C(OS(=O)(=O)O)C4O)OC(COS(=O)(=O)O)C3OS(=O)(=O)O)C(O)C2OC2OC(C)C(OS(=O)(=O)O)C(OS(=O)(=O)O)C2O)OC(COS(=O)(=O)O)C(OS(=O)(=O)O)C1OC1OC(C(=O)O)=CC(OC2OC(C)C(OS(=O)(=O)O)C(OS(=O)(=O)O)C2O)C1O [Compound B7, L-Fuc3S4S-(α1,3)-L-ΔUA-(α1,3)-{D-GaNAc4S6S-(β1,4)-[L-Fuc3S4S-(α1,3)]-D-GlcA-(β1,4)}˜-D-GalNAc4S6S-(β1,4)-[L-Fuc3S4S-(α1,3)]-D-GlcA]",# (>128 μg/mL),7.3,# (>128 μg/mL),–,–,–
–,–,–,"L-Fuc2S4S-(α1,3)-ΔUA-(α1,3)-{D-GaNAc4S6S-(β1,4)-[L-Fuc2S4S-(α1,3)]-D-GlcA-(β1,3)}n+1-D-GalNAc4S6S-ol [Compound A1]",# (>128 μg/mL),60.1,# (>128 μg/mL),## (>5000 ng/mL),## (>5000 ng/mL),## (>5000 ng/mL)

Compound,IC50 (FXa (Homo sapiens)) [nM],IC50 (FIIa (Homo sapiens)) [nM],IC50 (intrinsic factor Xase) [nM],Drug concentration required for multiplication of coagulation time (μg/mL) PT (human-controlled plasma [1]),Drug concentration required for multiplication of coagulation time (μg/mL) APTT (human-controlled plasma [2]) [µg/mL],Drug concentration required for multiplication of coagulation time (μg/mL) TT (plasma),"Drug concentration required to inhibit 50% of coagulation factor activity (IC50, ng/mL) Xa (AT) (FXa (Homo sapiens))","Drug concentration required to inhibit 50% of coagulation factor activity (IC50, ng/mL) Ha (AT) (FIIa (Homo sapiens))","Drug concentration required to inhibit 50% of coagulation factor activity (IC50, ng/mL) Xase (intrinsic factor Xase)"
"CC(=O)NC(CO)C(OC1OC(C(=O)O)C(OC2OC(COS(=O)(=O)O)C(OS(=O)(=O)O)C(OC3OC(C(=O)O)C(OC4OC(COS(=O)(=O)O)C(OS(=O)(=O)O)C(OC5OC(C(=O)O)C(OC6OC(COS(=O)(=O)O)C(OS(=O)(=O)O)C(OC7OC(C(=O)O)C(OC8OC(COS(=O)(=O)O)C(OS(=O)(=O)O)C(OC9OC(C(=O)O)C(OC%10OC(COS(=O)(=O)O)C(OS(=O)(=O)O)C(OC%11OC(C(=O)O)=CC(OC%12OC(C)C(OS(=O)(=O)O)C(O)C%12OS(=O)(=O)O)C%11O)C%10NC(C)=O)C(OC%10OC(C)C(OS(=O)(=O)O)C(O)C%10OS(=O)(=O)O)C9O)C8NC(C)=O)C(OC8OC(C)C(OS(=O)(=O)O)C(O)C8OS(=O)(=O)O)C7O)C6NC(C)=O)C(OC6OC(C)C(OS(=O)(=O)O)C(O)C6OS(=O)(=O)O)C5O)C4NC(C)=O)C(OC4OC(C)C(OS(=O)(=O)O)C(O)C4OS(=O)(=O)O)C3O)C2NC(C)=O)C(OC2OC(C)C(OS(=O)(=O)O)C(O)C2OS(=O)(=O)O)C1O)C(OS(=O)(=O)O)C(O)COS(=O)(=O)O [Compound A5, L-Fuc2S4S-(α1,3)-ΔUA-(α1,3)-{D-GaNAc4S6S-(β1,4)-[L-Fuc2S4S-(α1,3)]-D-GlcA-(β1,3)}n+1-D-GalNAc4S6S-ol]",> 985,> 985,4.65,# (>128 μg/mL),3.9,# (>128 μg/mL),–,–,–
